Laboratory results taken from the supplement of paper PMC8960247.
Where a name gives a salt, the structure may show the parent alone.

Columns and labels:
[1] = system: 621-102 (TSC2-deficient); assay: relative viability vs DMSO (fraction); higher = less cytotoxic; conditions: serum: 0.1% FBS, 72 h
[2] = system: UMB1949 (TSC2-deficient); assay: as above; conditions: serum: 0.1% FBS, 72 h
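Also: renal angiomyolipoma cell lines screened in 384-well plates, viability normalized per plate to DMSO-treated cells, each plate carrying 50 nM rapamycin and 1 µM staurosporine controls.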

Nc1ccccc1NC(=O)c1ccc(CNc2nccc(-c3cccnc3)n2)cc1 [Mocetinostat]
relative viability ([1]; 0.0128 nM): 0.964
relative viability ([1]; 0.064 nM): 0.98
relative viability ([1]; 0.32 nM): 0.857
relative viability ([1]; 1.6 nM): 0.954
relative viability ([1]; 8 nM): 0.735
relative viability ([1]; 40 nM): 0.401
relative viability ([1]; 200 nM): 0.174
relative viability ([1]; 1000 nM): 0.084
relative viability ([1]; 5000 nM): 0.00442
relative viability ([2]; 0.0128 nM): 1.24
relative viability ([2]; 0.064 nM): 1.09
relative viability ([2]; 0.32 nM): 1.05
relative viability ([2]; 1.6 nM): 1.02
relative viability ([2]; 8 nM): 0.951
relative viability ([2]; 40 nM): 0.578
relative viability ([2]; 200 nM): 0.0241
relative viability ([2]; 1000 nM): 0.00165
relative viability ([2]; 5000 nM): 0.00203

Cc1ccc([N+](=O)[O-])cc1S(=O)(=O)N(C)/N=C/c1cnc2ccc(Br)cn12 [PIK-75 Hydrochloride]
relative viability ([2]; 0.0128 nM): 0.512
relative viability ([2]; 0.064 nM): 0.42
relative viability ([2]; 0.32 nM): 0.371
relative viability ([2]; 1.6 nM): 0.417
relative viability ([2]; 8 nM): 0.126
relative viability ([2]; 40 nM): 0.00679
relative viability ([2]; 200 nM): 0.00475
relative viability ([2]; 1000 nM): 0.00356
relative viability ([2]; 5000 nM): 0.00221

CN1CC[C@H](c2c(O)cc(O)c3c(=O)cc(-c4ccccc4Cl)oc23)[C@H](O)C1 [Flavopiridol hydrochloride]
relative viability ([1]; 0.0128 nM): 0.701
relative viability ([1]; 0.064 nM): 0.787
relative viability ([1]; 0.32 nM): 0.805
relative viability ([1]; 1.6 nM): 0.875
relative viability ([1]; 8 nM): 0.747
relative viability ([1]; 40 nM): 0.227
relative viability ([1]; 200 nM): 0.009
relative viability ([1]; 1000 nM): 0.0076
relative viability ([1]; 5000 nM): 0.0171
relative viability ([2]; 0.0128 nM): 0.977
relative viability ([2]; 0.064 nM): 1
relative viability ([2]; 0.32 nM): 0.989
relative viability ([2]; 1.6 nM): 1.04
relative viability ([2]; 8 nM): 1.15
relative viability ([2]; 40 nM): 0.855
relative viability ([2]; 200 nM): 0.00837
relative viability ([2]; 1000 nM): 0.00534
relative viability ([2]; 5000 nM): 0.00482

CO[C@H]1C[C@@H]2CC[C@@H](C)[C@@](O)(O2)C(=O)C(=O)N2CCCC[C@H]2C(=O)O[C@H]([C@H](C)C[C@@H]2CC[C@@H](O)[C@H](OC)C2)CC(=O)[C@H](C)/C=C(\C)[C@@H](O)[C@@H](OC)C(=O)[C@H](C)C[C@H](C)/C=C/C=C/C=C/1C [Rapamycin(Sirolimus)]
relative viability ([1]; 0.0128 nM): 0.506
relative viability ([1]; 0.064 nM): 0.495
relative viability ([1]; 0.32 nM): 0.584
relative viability ([1]; 1.6 nM): 0.441
relative viability ([1]; 8 nM): 0.385
relative viability ([1]; 40 nM): 0.388
relative viability ([1]; 200 nM): 0.254
relative viability ([1]; 1000 nM): 0.277
relative viability ([1]; 5000 nM): 0.222
relative viability ([2]; 0.0128 nM): 0.874
relative viability ([2]; 0.064 nM): 0.825
relative viability ([2]; 0.32 nM): 0.847
relative viability ([2]; 1.6 nM): 0.773
relative viability ([2]; 8 nM): 0.818
relative viability ([2]; 40 nM): 0.841
relative viability ([2]; 200 nM): 0.593
relative viability ([2]; 1000 nM): 0.466
relative viability ([2]; 5000 nM): 0.364

Nc1ccn([C@@H]2O[C@H](CO)[C@@H](O)[C@@H]2O)c(=O)n1 [Cytarabine]
relative viability ([1]; 0.0128 nM): 1.24
relative viability ([1]; 0.064 nM): 1.08
relative viability ([1]; 0.32 nM): 1.14
relative viability ([1]; 1.6 nM): 0.885
relative viability ([1]; 8 nM): 1.01
relative viability ([1]; 40 nM): 0.505
relative viability ([1]; 200 nM): 0.244
relative viability ([1]; 1000 nM): 0.096
relative viability ([1]; 5000 nM): 0.0178
relative viability ([2]; 0.0128 nM): 0.98
relative viability ([2]; 0.064 nM): 0.941
relative viability ([2]; 0.32 nM): 0.967
relative viability ([2]; 1.6 nM): 0.962
relative viability ([2]; 8 nM): 0.974
relative viability ([2]; 40 nM): 0.929
relative viability ([2]; 200 nM): 0.176
relative viability ([2]; 1000 nM): 0.00531
relative viability ([2]; 5000 nM): 0.0022

CC1=NN(c2ccc(C)c(C)c2)C(=O)/C1=N\Nc1cccc(-c2cccc(C(=O)O)c2)c1O [Eltrombopag]
relative viability ([1]; 0.0128 nM): 1.19
relative viability ([1]; 0.064 nM): 0.961
relative viability ([1]; 0.32 nM): 0.994
relative viability ([1]; 1.6 nM): 0.991
relative viability ([1]; 8 nM): 0.875
relative viability ([1]; 40 nM): 0.926
relative viability ([1]; 200 nM): 1.43
relative viability ([1]; 1000 nM): 0.074
relative viability ([1]; 5000 nM): 0.0453
relative viability ([2]; 0.0128 nM): 1.08
relative viability ([2]; 0.064 nM): 0.963
relative viability ([2]; 0.32 nM): 1
relative viability ([2]; 1.6 nM): 1.05
relative viability ([2]; 8 nM): 1.09
relative viability ([2]; 40 nM): 1.03
relative viability ([2]; 200 nM): 0.473
relative viability ([2]; 1000 nM): 0.00551
relative viability ([2]; 5000 nM): 0.00668

COC(=O)Nc1nc2cc(Sc3ccccc3)ccc2[nH]1 [Fenbendazole]
relative viability ([1]; 0.0128 nM): 1.37
relative viability ([1]; 0.064 nM): 1.35
relative viability ([1]; 0.32 nM): 1.68
relative viability ([1]; 1.6 nM): 1.39
relative viability ([1]; 8 nM): 0.898
relative viability ([1]; 40 nM): 0.314
relative viability ([1]; 200 nM): 0.0634
relative viability ([1]; 1000 nM): 0.0446
relative viability ([1]; 5000 nM): 0.0203
relative viability ([2]; 0.0128 nM): 1.05
relative viability ([2]; 0.064 nM): 0.807
relative viability ([2]; 0.32 nM): 1.02
relative viability ([2]; 1.6 nM): 0.969
relative viability ([2]; 8 nM): 0.983
relative viability ([2]; 40 nM): 0.605
relative viability ([2]; 200 nM): 0.00543
relative viability ([2]; 1000 nM): 0.00256
relative viability ([2]; 5000 nM): 0.00375
